# Source: ChEMBL document CHEMBL3808309, “Interpreting the behavior of concentration-response curves of hyaluronidase inhibitors under DMSO-perturbed assay conditions” (Bioorg Med Chem Lett, 2016)
# Calls of active or inactive are those of the source. The rule behind the calls is not given here.
# Assays:
# [1] = Inhibition of bovine testis hyaluronidase using hyaluronic acid as substrate preincubated with CaCl2 for 20 mins followed by incubation with of compound for 20 mins and substrate for 10 mins by colorimetric Morgan-Elson method in presence of 0.05% triton X-100; design: species or system Bos taurus
# [2] = Inhibition of bovine testis hyaluronidase using hyaluronic acid as substrate preincubated for 20 mins followed by incubation with CaCl2 for 20 mins and substrate for 10 mins by colorimetric Morgan-Elson method; design: species or system Bos taurus
# [3] = Inhibition of bovine testis hyaluronidase using hyaluronic acid as substrate preincubated with CaCl2 for 20 mins followed by incubation with compound for 20 mins and substrate for 10 mins by colorimetric Morgan-Elson method in presence of BSA; design: species or system Bos taurus
# [4] = organism: Bos taurus; test: Inhibition of bovine testis hyaluronidase preincubated with CaCl2 for 20 mins followed by incubation with compound for 20 mins and substrate for 10 mins by colorimetric Morgan-Elson method in presence of up to 21% DMSO
# [5] = Inhibition of bovine testis hyaluronidase using hyaluronic acid as substrate preincubated with CaCl2 for 20 mins followed by incubation with compound for 20 mins and substrate for 10 mins by colorimetric Morgan-Elson method; design: species or system Bos taurus
# [6] = Inhibition of bovine testis hyaluronidase preincubated with CaCl2 for 20 mins followed by incubation with compound for 20 mins and substrate for 10 mins by colorimetric Morgan-Elson method in presence of urea; design: species or system Bos taurus
# [7] = organism: Bos taurus; test: Ratio of IC50 for inhibition of bovine testis hyaluronidase preincubated with CaCl2 for 20 mins followed by addition of compound to IC50 for inhibition of bovine testis hyaluronidase preincubated for 20 mins followed by addition of CaCl2
# [8] = organism: Bos taurus; test: Inhibition of bovine testis hyaluronidase using hyaluronic acid as substrate at 3000 uM preincubated with CaCl2 for 20 mins followed by incubation with compound for 20 mins and substrate for 10 mins by colorimetric Morgan-Elson method in presence of 0.05% triton X-100
IC50 [1] [µM],IC50 [2] [µM],IC50 [3] [µM],inhibition [4],IC50 [5] [µM],IC50 [6] [µM],Ratio IC50 [7],inhibition [8] [%],SMILES
1000,450,1600,inactive,1400,–,–,–,O=C(O)[C@H]1O[C@@H](Oc2cc3oc(-c4ccccc4)cc(=O)c3c(O)c2O)[C@H](O)[C@@H](O)[C@@H]1O [BAICALIN]
1700,330,1600,inactive,1700,1600,–,–,O=C(O)c1cc(=O)c2c(OCC(O)COc3cccc4oc(C(=O)O)cc(=O)c34)cccc2o1 [CROMOLYN SODIUM]

# The remaining lines, values behind:
SMILES,IC50 [1] [µM],IC50 [2] [µM],IC50 [3] [µM],inhibition [4],IC50 [5] [µM],IC50 [6] [µM],Ratio IC50 [7],inhibition [8] [%]
CCCCCCCCCCCCCCCC(=O)OC[C@H](O)C1OC(=O)C(O)=C1O (some centres not stated),480,23,240,Active,47,–,–,–
CC1(C)[C@@H](O[C@H]2O[C@H](C(=O)O)[C@@H](O)[C@H](O)[C@H]2O[C@@H]2O[C@H](C(=O)O)[C@@H](O)[C@H](O)[C@H]2O)CC[C@]2(C)[C@H]3C(=O)C=C4[C@@H]5C[C@@](C)(C(=O)O)CC[C@]5(C)CC[C@@]4(C)[C@]3(C)CC[C@@H]12 [GLYCYRRHIZIN],40,8.5,61,inactive,29,31,> 3,–
COc1ccc2c(c1)c(CC(=O)O)c(C)n2C(=O)c1ccc(Cl)cc1 [INDOMETHACIN],–,340,2000,–,1400,–,–,< 50
